# Source: ChEMBL document CHEMBL2150993, “Substituted thiazoles VII. Synthesis and antitumor activity of certain 2-(substituted amino)-4-phenyl-1,3-thiazole analogs” (2012)
# Columns and labels:
# Type in all cases: functional
# Conditions in all cases: at 10 µM
# RXF 393 = experiment: Growth inhibition of human RXF393 cells after 48 hrs by cell counting analysis
# OVCAR-5 = experiment: Growth inhibition of human OVCAR5 cells after 48 hrs by cell counting analysis
# M14 = experiment: Growth inhibition of human M14 cells after 48 hrs by cell counting analysis
# HCT-15 = experiment: Growth inhibition of human HCT15 cells after 48 hrs by cell counting analysis
# SK-OV-3 = experiment: Growth inhibition of human SKOV3 cells after 48 hrs by cell counting analysis
# MDA-MB-468 = experiment: Growth inhibition of human MDA-MB-468 cells after 48 hrs by cell counting analysis
# OVCAR-4 = experiment: Growth inhibition of human OVCAR4 cells after 48 hrs by cell counting analysis
# NCI-H23 = experiment: Growth inhibition of human NCI-H23 cells after 48 hrs by cell counting analysis
# Malme-3M = experiment: Growth inhibition of human MALME-3M cells after 48 hrs by cell counting analysis
# HCC 2998 = experiment: Growth inhibition of human HCC2998 cells after 48 hrs by cell counting analysis
# NCI-H226 = experiment: Growth inhibition of human NCI-H226 cells after 48 hrs by cell counting analysis
# IGROV-1 = experiment: Growth inhibition of human IGROV1 cells after 48 hrs by cell counting analysis
# PC-3 = experiment: Growth inhibition of human PC3 cells after 48 hrs by cell counting analysis
# SR = experiment: Growth inhibition of human SR cells after 48 hrs by cell counting analysis
# SNB-19 = experiment: Growth inhibition of human SNB19 cells after 48 hrs by cell counting analysis
# SF-295 = experiment: Growth inhibition of human SF295 cells after 48 hrs by cell counting analysis
# HOP-92 = experiment: Growth inhibition of human HOP92 cells after 48 hrs by cell counting analysis
# U-251 = experiment: Growth inhibition of human U251 cells after 48 hrs by cell counting analysis
# LOX IMVI = experiment: Growth inhibition of human LOXIMVI cells after 48 hrs by cell counting analysis
# BT-549 = experiment: Growth inhibition of human BT549 cells after 48 hrs by cell counting analysis
# MOLT-4 = experiment: Growth inhibition of human MOLT4 cells after 48 hrs by cell counting analysis
# OVCAR-3 = experiment: Growth inhibition of human OVCAR3 cells after 48 hrs by cell counting analysis
# SNB-75 = experiment: Growth inhibition of human SNB75 cells after 48 hrs by cell counting analysis
# SK-MEL-28 = experiment: Growth inhibition of human SK-MEL-28 cells after 48 hrs by cell counting analysis
# UACC-257 = experiment: Growth inhibition of human UACC257 cells after 48 hrs by cell counting analysis
# MDA-MB-231 = experiment: Growth inhibition of human MDA-MB-231 cells after 48 hrs by cell counting analysis
# T47D = experiment: Growth inhibition of human T47D cells after 48 hrs by cell counting analysis
# UO-31 = experiment: Growth inhibition of human UO31 cells after 48 hrs by cell counting analysis
# SF-539 = experiment: Growth inhibition of human SF539 cells after 48 hrs by cell counting analysis
# HT-29 = experiment: Growth inhibition of human HT-29 cells after 48 hrs by cell counting analysis
# SW-620 = experiment: Growth inhibition of human SW620 cells after 48 hrs by cell counting analysis
# NCI-H522 = experiment: Growth inhibition of human NCI-H522 cells after 48 hrs by cell counting analysis
# KM12 = experiment: Growth inhibition of human KM12 cells after 48 hrs by cell counting analysis
# TK-10 = experiment: Growth inhibition of human TK10 cells after 48 hrs by cell counting analysis
# OVCAR-8 = experiment: Growth inhibition of human OVCAR8 cells after 48 hrs by cell counting analysis
# HOP-62 = experiment: Growth inhibition of human HOP62 cells after 48 hrs by cell counting analysis
# [1] = Growth inhibition of human NCI-322M cells after 48 hrs by cell counting analysis
# HL-60 = experiment: Growth inhibition of human HL60 cells after 48 hrs by cell counting analysis
# A549 = experiment: Growth inhibition of human A549 cells after 48 hrs by cell counting analysis
# RPMI-8226 = experiment: Growth inhibition of human RPMI8226 cells after 48 hrs by cell counting analysis
# MCF7 = experiment: Growth inhibition of human MCF7 cells after 48 hrs by cell counting analysis
# CAKI-1 = experiment: Growth inhibition of human Caki1 cells after 48 hrs by cell counting analysis
# K562 = experiment: Growth inhibition of human K562 cells after 48 hrs by cell counting analysis
# SN12C = experiment: Growth inhibition of human SN12C cells after 48 hrs by cell counting analysis
# SF-268 = experiment: Growth inhibition of human SF268 cells after 48 hrs by cell counting analysis
# ACHN = experiment: Growth inhibition of human ACHN cells after 48 hrs by cell counting analysis
# UACC-62 = experiment: Growth inhibition of human UACC62 cells after 48 hrs by cell counting analysis
# MDA-MB-435 = experiment: Growth inhibition of human MDA-MB-435 cells after 48 hrs by cell counting analysis
# HCT-116 = experiment: Growth inhibition of human HCT116 cells after 48 hrs by cell counting analysis
# SK-MEL-2 = experiment: Growth inhibition of human SK-MEL-2 cells after 48 hrs by cell counting analysis
# [2] = Growth inhibition of human NCI-ADR-RES cells after 48 hrs by cell counting analysis
# CCRF-CEM = experiment: Growth inhibition of human CCRF-CEM cells after 48 hrs by cell counting analysis
# EKVX = experiment: Growth inhibition of human EKVX cells after 48 hrs by cell counting analysis
# SK-MEL-5 = experiment: Growth inhibition of human SK-MEL-5 cells after 48 hrs by cell counting analysis
smiles,measurement,setting,value
Cc1ccc(-c2csc(NC(=O)CN3CCN(C)CC3)n2)cc1,growth inhibition (GI),RXF 393,<10%
same,growth inhibition (GI),OVCAR-5,<10%
same,growth inhibition (GI),M14,<10%
same,growth inhibition (GI),HCT-15,<10%
same,growth inhibition (GI),SK-OV-3,<10%
same,growth inhibition (GI),MDA-MB-468,<10%
same,growth inhibition (GI),OVCAR-4,<10%
same,growth inhibition (GI),NCI-H23,<10%
same,growth inhibition (GI),Malme-3M,<10%
same,growth inhibition (GI),HCC 2998,<10%
same,growth inhibition (GI),NCI-H226,<10%
same,growth inhibition (GI),IGROV-1,<10%
same,growth inhibition (GI),PC-3,<10%
same,growth inhibition (GI),SR,<10%
same,growth inhibition (GI),SNB-19,<10%
same,growth inhibition (GI),SF-295,<10%
same,growth inhibition (GI),HOP-92,<10%
same,growth inhibition (GI),U-251,<10%
same,growth inhibition (GI),LOX IMVI,<10%
same,growth inhibition (GI),BT-549,12.8%
same,growth inhibition (GI),MOLT-4,13.4%
same,growth inhibition (GI),OVCAR-3,<10%
same,growth inhibition (GI),SNB-75,42.2%
same,growth inhibition (GI),SK-MEL-28,<10%
same,growth inhibition (GI),UACC-257,<10%
same,growth inhibition (GI),MDA-MB-231,34.2%
same,growth inhibition (GI),T47D,<10%
same,growth inhibition (GI),UO-31,19.9%
same,growth inhibition (GI),SF-539,<10%
same,growth inhibition (GI),HT-29,<10%
same,growth inhibition (GI),SW-620,<10%
same,growth inhibition (GI),NCI-H522,<10%
same,growth inhibition (GI),KM12,<10%
same,growth inhibition (GI),TK-10,<10%
same,growth inhibition (GI),OVCAR-8,<10%
same,growth inhibition (GI),HOP-62,<10%
same,growth inhibition (GI),[1],<10%
same,growth inhibition (GI),HL-60,<10%
same,growth inhibition (GI),A549,<10%
same,growth inhibition (GI),RPMI-8226,<10%
same,growth inhibition (GI),MCF7,12.7%
same,growth inhibition (GI),CAKI-1,12%
same,growth inhibition (GI),K562,11.4%
same,growth inhibition (GI),SN12C,10.4%
same,growth inhibition (GI),SF-268,<10%
same,growth inhibition (GI),ACHN,<10%
same,growth inhibition (GI),UACC-62,<10%
same,growth inhibition (GI),MDA-MB-435,<10%
same,growth inhibition (GI),HCT-116,<10%
same,growth inhibition (GI),SK-MEL-2,<10%
same,growth inhibition (GI),[2],<10%
same,growth inhibition (GI),CCRF-CEM,<10%
same,growth inhibition (GI),EKVX,<10%
same,growth inhibition (GI),SK-MEL-5,<10%
